Consider seven molecules from paper PMC7824903, “Dual Carbonic Anhydrase IX/XII Inhibitors and Carbon Monoxide Releasing Molecules Modulate LPS-Mediated Inflammation in Mouse Macrophages” (Antioxidants, 2021).

Test [1] deals with T1, hCA XII (Homo sapiens, UniProt O43570).
T1 construct: gene CA12; recombinant, obtained in-house
Briefly: stopped-flow CO2 hydrase assay. The format is biochemical.

The target in test [2] is T2, hCA IX (Homo sapiens, UniProt Q16790).
T2 construct: gene CA9; recombinant, obtained in-house
In words: stopped-flow CO2 hydrase assay. It counts as biochemical.

Test [3] addresses T2, hCA IX. In words: stopped-flow CO2 hydrase assay. The format is biochemical. Conditions: CO2 […], […] Hepes pH […] Na2SO4, […] min preincubation at room temperature.
For test [4], the target named is T2, hCA IX. Briefly: biochemical. On the set-up: Stopped-flow CO2 hydrase assay, phenol red absorbance at 557 nm, KI by Cheng-Prusoff. The method, then:
(§1) An Applied Photophysics stopped-flow instrument has been used for assaying the CA catalysed CO2 hydration activity. Phenol red (at a concentration of 0.2 mM) has been used as indicator, working at the absorbance maximum of 557 nm, with 20 mM Hepes (pH 7.5) as buffer, and 20 mM Na2SO4 (for maintaining constant the ionic strength), following the initial rates of the CA-catalyzed CO2 hydration reaction for a period of 10–100 s. The CO2 concentrations ranged from 1.7 to 17 mM for the determination of the kinetic parameters and inhibition constants. For each inhibitor at least six traces of the initial 5–10% of the reaction have been used for determining the initial velocity. The uncatalyzed rates were determined in the same manner and subtracted from the total observed rates. Stock solutions of inhibitor (0.1 mM) were prepared in distilled-deionized water and dilutions up to 0.01 nM were done thereafter with the assay buffer. Inhibitor and enzyme solutions were preincubated together for 15 min at room temperature prior to assay, to allow for the formation of the E-I complex. The inhibition constants were obtained by non-linear least-squares methods using PRISM 3 and the Cheng–Prusoff equation, as reported earlier, and represent the mean from at least three different determinations. All CA isoforms were recombinant ones obtained in-house as reported earlier. […] DCH/CO-RM derivatives 1–10 were therefore investigated as inhibitors of the hCAs I, II, IX, and XII by means of the Stopped-Flow CO2 hydrase assay.

The target in test [5] is T1, hCA XII. In words: biochemical. On the set-up: Stopped-flow CO2 hydrase assay, phenol red absorbance at 557 nm, KI by Cheng-Prusoff. The method, then: as §1
The target of test [6] is T1, hCA XII. In words: stopped-flow CO2 hydrase assay. It counts as biochemical. The settings on record: CO2 […], […] Hepes pH […] Na2SO4, […] min preincubation at room temperature.
The target in the next test is T3, hCA I (Homo sapiens, UniProt P00915).
T3 construct: gene CA1; recombinant, obtained in-house
T3 sequence (P00915 2-261): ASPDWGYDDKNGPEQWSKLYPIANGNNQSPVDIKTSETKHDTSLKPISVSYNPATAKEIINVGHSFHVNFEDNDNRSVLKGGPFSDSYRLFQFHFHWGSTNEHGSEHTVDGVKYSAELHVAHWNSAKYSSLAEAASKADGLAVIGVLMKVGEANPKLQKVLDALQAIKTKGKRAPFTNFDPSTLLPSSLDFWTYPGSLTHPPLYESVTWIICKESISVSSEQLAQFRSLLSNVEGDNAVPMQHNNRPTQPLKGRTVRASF
Briefly: biochemical. Further details: Stopped-flow CO2 hydrase assay, phenol red absorbance at 557 nm, KI by Cheng-Prusoff. Here is the method:
as §1

A further test addresses T4, hCA II (Homo sapiens, UniProt P00918).
T4 construct: gene CA2; recombinant, obtained in-house
In words: biochemical. On the set-up: Stopped-flow CO2 hydrase assay, phenol red absorbance at 557 nm, KI by Cheng-Prusoff. Here is the method:
as §1

T1 sequence (O43570 30-289 limits assumed): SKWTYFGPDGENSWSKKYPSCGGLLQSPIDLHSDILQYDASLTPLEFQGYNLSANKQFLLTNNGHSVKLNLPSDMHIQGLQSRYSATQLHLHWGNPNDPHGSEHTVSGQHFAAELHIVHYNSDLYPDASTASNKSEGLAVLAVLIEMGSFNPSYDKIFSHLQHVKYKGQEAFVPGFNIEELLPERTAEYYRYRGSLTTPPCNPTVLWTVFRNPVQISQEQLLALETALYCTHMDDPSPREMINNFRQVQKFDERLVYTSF

In general, Ki refers to the equilibrium dissociation constant of an inhibitor or competing ligand from its target. A high value points to weaker binding. As for `C#CCOc1ccc2oc(=O)c(C(=O)c3ccccc3)cc2c1` [g, 3-benzoyl-6-(prop-2-yn-1-yloxy)-2H-chromen-2-one], the Ki at hCA XII [1] was 0.353 µM; on hCA IX [2], 0.315 µM.

Take `C#CCN1C(=O)C=C(C)OS1(=O)=O` [b, 6-methyl-3-(prop-2-yn-1-yl)-1,2,3-oxathiazin-4(3H)-one 2,2-dioxide]: the KI entry at hCA IX [3] was “compound b exhibited a loss of inhibitory activity after the CO releasing group linkage”; on hCA XII [6], “Compounds a and b showed better inhibitory activity against isoform XII”. In addition, the results for the inhibition constant Ki on hCA IX [4] and at hCA XII [5] were 358 nM and 378 nM, respectively.

As to `C#CCOc1ccc(-c2nc3ccccc3n2-c2ccccc2)cc1` [l], the Ki on hCA I, at hCA IX [4], on hCA XII [5] and at hCA II was above 100000 nM in each case.

Consider `C#CCOc1cccc2cc(C(=O)OCC)c(=O)oc12` [h, ethyl 2-oxo-8-(prop-2-yn-1-yloxy)-2H-chromene-3-carboxylate], for which the Ki on hCA I and at hCA II was above 100000 nM throughout.

`C#CCOC1=NS(=O)(=O)OC(C)=C1` [a]: the Ki on hCA IX [2] (CO2 […], […] Hepes pH […] Na2SO4, […] min preincubation at room temperature) is 0.252 µM.

In the case of `C#CCOc1ccc(C2=NN(C(C)=O)C(c3ccccc3OC)C2)cc1` (stereo not shown) [i], the Ki on hCA I, on hCA IX [4], on hCA XII [5] and on hCA II was above 100000 nM throughout.

`C#CCOc1cccc2cc(C(=O)c3ccccc3)c(=O)oc12` [f, 3-benzoyl-8-(prop-2-yn-1-yloxy)-2H-chromen-2-one]: the inhibitory constant (Ki) at hCA IX [2] is 0.695 µM; at hCA I, above 100000 nM; on hCA XII [5], 4920 nM; on hCA II it was above 100000 nM. The KI result at hCA XII [6] is “maintained unchanged their inhibitory activity against hCA XII”.
